{
  "source": "ChEMBL document CHEMBL4342403",
  "about": "“New evolutions in the BACE1 inhibitor field from 2014 to 2018” (Bioorg Med Chem Lett, 2019)",
  "key": {"Beta-secretase 1 [1]": {"molecular_target": "T1, Beta-secretase 1 (Homo sapiens, UniProt P56817)", "T1 sequence (P56817 whole entry)": "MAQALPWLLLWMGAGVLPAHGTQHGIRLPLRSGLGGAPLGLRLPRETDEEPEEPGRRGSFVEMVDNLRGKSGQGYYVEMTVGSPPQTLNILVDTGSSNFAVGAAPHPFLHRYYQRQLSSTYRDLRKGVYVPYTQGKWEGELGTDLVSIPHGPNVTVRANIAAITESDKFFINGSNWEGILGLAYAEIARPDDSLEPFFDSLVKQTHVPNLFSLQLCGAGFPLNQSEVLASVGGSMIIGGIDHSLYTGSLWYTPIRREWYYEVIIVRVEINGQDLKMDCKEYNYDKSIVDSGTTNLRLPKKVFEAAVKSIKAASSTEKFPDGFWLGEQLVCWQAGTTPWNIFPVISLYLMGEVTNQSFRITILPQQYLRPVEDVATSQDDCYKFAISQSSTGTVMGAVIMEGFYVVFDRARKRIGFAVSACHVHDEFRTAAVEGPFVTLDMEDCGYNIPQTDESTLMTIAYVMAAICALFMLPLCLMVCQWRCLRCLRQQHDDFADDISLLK", "assay": "Inhibition of BACE1 (unknown origin) assessed as reduction in amyloidbeta 40 level after 24 hrs by cell-based sandwich ELISA"}, "Beta-secretase 1 [2]": {"molecular_target": "T1, Beta-secretase 1", "assay": "Inhibition of BACE1 (unknown origin) preincubated for 1 hr followed by substrate addition and measured after 1 hr by FRET assay"}, "Cathepsin D": {"molecular_target": "Cathepsin D (Homo sapiens, UniProt P07339)", "sequence (P07339 65-162 limits assumed)": "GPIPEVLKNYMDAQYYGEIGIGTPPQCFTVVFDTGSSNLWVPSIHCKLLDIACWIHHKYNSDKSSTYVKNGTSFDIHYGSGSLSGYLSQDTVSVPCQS", "sequence (P07339 169-412 limits assumed)": "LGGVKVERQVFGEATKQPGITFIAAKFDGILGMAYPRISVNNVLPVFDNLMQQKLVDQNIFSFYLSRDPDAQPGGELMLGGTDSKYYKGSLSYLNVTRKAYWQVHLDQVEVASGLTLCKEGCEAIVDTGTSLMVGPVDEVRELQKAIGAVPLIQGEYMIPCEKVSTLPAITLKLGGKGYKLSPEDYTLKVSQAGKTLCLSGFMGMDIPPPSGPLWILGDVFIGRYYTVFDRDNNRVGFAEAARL", "assay": "Inhibition of recombinant Cathepsin D (unknown origin) expressed in CHO cells preincubated for 1 hr followed by substrate addition and measured after 1 hr by FRET assay", "format": "cell-based"}, "Rattus norvegicus [3]": {"tested_on": "Rattus norvegicus", "assay": "In vivo inhibition of BACE1 in Sprague Dawley rat assessed as reduction in amyloidbeta 40 level in CSF at 10 mg/kg, po measured at 4 hrs post dose by sandwich ELISA relative to control", "format": "functional"}, "Rattus norvegicus [4]": {"tested_on": "Rattus norvegicus", "assay": "In vivo inhibition of BACE1 in Sprague Dawley rat assessed as reduction in amyloidbeta 40 level in brain at 10 mg/kg, po measured at 4 hrs post dose by sandwich ELISA relative to control", "format": "functional"}},
  "note": "pIC50: −log10 of the molar value.",
  "data": [
    {"smiles": "Cc1cc(Cl)cnc1C(=O)Nc1ccc(F)c([C@@]2(C)N=C(N)[C@]3(C)CC[C@H]2S3(=O)=O)c1", "values": [
      {"measurement": "pIC50", "setting": "Beta-secretase 1 [1]", "value": 8.70},
      {"measurement": "pIC50", "setting": "Beta-secretase 1 [2]", "value": 8.70},
      {"measurement": "pIC50", "setting": "Cathepsin D", "value": 2.76},
      {"measurement": "inhibition in vivo at 10 mg/kg", "setting": "Rattus norvegicus [3]", "value": 76, "unit": "%"},
      {"measurement": "inhibition in vivo at 10 mg/kg", "setting": "Rattus norvegicus [4]", "value": 66, "unit": "%"}
    ]}
  ]
}
